Reference: patent US20080058213A1, “Benzoxazole Compounds” (priority 2004, published 2008)

Experiments:
Type in all cases: in vivo
corn [1] = assay: Soil treatment test for upland field (Test Example 2): phytotoxicity to corn; conditions: soil treatment before germination, examined after 3 weeks
Description: (§1) Evaluation of phytotoxicity is shown in the following six grades, as compared with the condition of untreated control: • 0: normal growth • 1: little damaged • 2: low damaged • 3: medium damaged • 4: serious damaged • 5: complete killed.
(§2) Upland field soil was filled in 1/3,000 are pots, seeded with southern crabgrass (Digitaria ciliaris), common lambsquaters (Chenopodium album), slender amaranth (Amaranthus viridis), common purslane (Portulaca oleracea), velvetleaf (Abutilon theophrasti), wheat, corn and soybean. The seeds were covered up with the soil.
(§3) After placing the test pots in a glasshouse which was kept at an average temperature of 25° C. for 3 weeks, the herbicidal effect was examined.

[2] = test system: Monochoria (Monochoria vaginalis); assay: Weed control test for paddy field (Test Example 1): Monochoria; conditions: paddy pots, treated at 1.0 leaf stage of barnyard grass, examined after 3 weeks
Description: (§4) Paddy field soil was filled in 1/10,000 are pots, kneaded with adequate amounts of water and chemical fertilizer, seeded with barnyard grass (Echinochloa crusgalli), Monochoria (Monochoria vaginalis), Japanese bulrush (Scirpus juncoides) and flat sedge (Cyperus serotinus), and further transplanted with 2.0 leaf stage of rice plant. The pots were maintained under the water-filled condition to a depth of 3 cm.
(§5) Wettable powders containing the compounds (1) as identified in Table 1, which were formulated following Production Example 2, were diluted with adequate amount of water and applied to the pots dropwise with pippet at a prescribed dose of the active ingredients per are, at 1.0 leaf stage of the barnyard grass.
(§6) After placing the pots in a glasshouse which was controlled at an average temperature of 25° C. for 3 weeks, herbicidal effect was examined.
(§7) Evaluation of the herbicidal effect is shown in the following six grades, by comparing the condition of untreated control and growth inhibition (%): • 0: 0%-less than 20% • 1: 20%-less than 40% • 2: 40%-less than 60% • 3: 60%-less than 80% • 4: 80%-less than 100% • 5: 100%.

[3] = test system: slender amaranth (Amaranthus viridis); assay: Soil treatment test for upland field (Test Example 2): slender amaranth; conditions: soil treatment before germination, examined after 3 weeks
Description: as §7, §2
(§8) Wettable powders containing the object compounds (1) as identified in Table 1, which were formulated following Preparation Example 2, were diluted with adequate amount of water to secure the prescribed dose of the active ingredient, and uniformly sprayed onto the surface soil layer after the seeding and before germination of the weeds, at an application water of 15 liters per are.
as §3
(§9) Evaluations of the herbicidal effect and phytotoxicity were made in the manner similar to those in the above Test Example 1.

southern crabgrass = assay: Foliage treatment test for upland field (Test Example 3): southern crabgrass; conditions: foliage treatment at 1.0-2.0 leaf stage of southern crabgrass, examined after 3 weeks
Description: as §7
(§10) Compost mixed soil was filled in 1/3,000 are pots, seeded with southern crabgrass, common lambsquaters, slender amaranth, common purslane, velvetleaf, wheat, corn and soybean. The seeds were covered up with the soil and cultured in a glasshouse kept at 25° C. on the average.
(§11) Wettable powders containing the object compounds (1) as identified in Table 1, which were formulated following Preparation Example 2, were diluted with water to the prescribed dose of the active ingredient, and uniformly sprayed onto the weeds at 1.0-2.0 leaf stage of the southern crabgrass at an application water of 15 liters per are.
(§12) After placing the test pots in a grasshouse kept at 25° C. on the average for 3 weeks, the herbicidal effect was examined.
(§13) Evaluation of the herbicidal effect was conducted in the similar manner to Test Example 1.

[4] = test system: flat sedge (Cyperus serotinus); assay: Weed control test for paddy field (Test Example 1): flat sedge; conditions: paddy pots, treated at 1.0 leaf stage of barnyard grass, examined after 3 weeks
Description: as §4, §5, §6, §7

[5] = test system: common purslane (Portulaca oleracea); assay: Soil treatment test for upland field (Test Example 2): common purslane; conditions: soil treatment before germination, examined after 3 weeks
Description: as §7, §2, §8, §3, §9

[6] = test system: Japanese bulrush (Scirpus juncoides); assay: Weed control test for paddy field (Test Example 1): Japanese bulrush; conditions: paddy pots, treated at 1.0 leaf stage of barnyard grass, examined after 3 weeks
Description: as §4, §5, §6, §7

[7] = test system: southern crabgrass (Digitaria ciliaris); assay: Soil treatment test for upland field (Test Example 2): southern crabgrass; conditions: soil treatment before germination, examined after 3 weeks
Description: as §7, §2, §8, §3, §9

[8] = test system: velvetleaf (Abutilon theophrasti); assay: Soil treatment test for upland field (Test Example 2): velvetleaf; conditions: soil treatment before germination, examined after 3 weeks
Description: as §7, §2, §8, §3, §9

soybean [9] = assay: Foliage treatment test for upland field (Test Example 3): phytotoxicity to soybean; conditions: foliage treatment at 1.0-2.0 leaf stage of southern crabgrass, examined after 3 weeks
Protocol: as §1, §10, §12

wheat [10] = assay: Foliage treatment test for upland field (Test Example 3): phytotoxicity to wheat; conditions: foliage treatment at 1.0-2.0 leaf stage of southern crabgrass, examined after 3 weeks
Protocol: as §1, §10, §12

corn [11] = assay: Foliage treatment test for upland field (Test Example 3): phytotoxicity to corn; conditions: foliage treatment at 1.0-2.0 leaf stage of southern crabgrass, examined after 3 weeks
Protocol: as §1, §10, §12

soybean [12] = assay: Soil treatment test for upland field (Test Example 2): phytotoxicity to soybean; conditions: soil treatment before germination, examined after 3 weeks
Description: as §1, §2, §3

wheat [13] = assay: Soil treatment test for upland field (Test Example 2): phytotoxicity to wheat; conditions: soil treatment before germination, examined after 3 weeks
Description: as §1, §2, §3

[14] = test system: barnyard grass (Echinochloa crusgalli); assay: Weed control test for paddy field (Test Example 1): barnyard grass; conditions: paddy pots, treated at 1.0 leaf stage of barnyard grass, examined after 3 weeks
Description: as §4, §5, §6, §7

rice plant = assay: Weed control test for paddy field (Test Example 1): phytotoxicity to rice plant; conditions: paddy pots, treated at 1.0 leaf stage of barnyard grass, examined after 3 weeks
Description: as §4, §5, §6, §1

[15] = test system: common lambsquaters (Chenopodium album); assay: Soil treatment test for upland field (Test Example 2): common lambsquaters; conditions: soil treatment before germination, examined after 3 weeks
Description: as §7, §2, §8, §3, §9

common lambsquaters = assay: Foliage treatment test for upland field (Test Example 3): common lambsquaters; conditions: foliage treatment at 1.0-2.0 leaf stage of southern crabgrass, examined after 3 weeks
Description: as §7, §10, §11, §12, §13

velvetleaf = assay: Foliage treatment test for upland field (Test Example 3): velvetleaf; conditions: foliage treatment at 1.0-2.0 leaf stage of southern crabgrass, examined after 3 weeks
Description: as §7, §10, §11, §12, §13

common purslane = assay: Foliage treatment test for upland field (Test Example 3): common purslane; conditions: foliage treatment at 1.0-2.0 leaf stage of southern crabgrass, examined after 3 weeks
Description: as §7, §10, §11, §12, §13

slender amaranth = assay: Foliage treatment test for upland field (Test Example 3): slender amaranth; conditions: foliage treatment at 1.0-2.0 leaf stage of southern crabgrass, examined after 3 weeks
Description: as §7, §10, §11, §12, §13

## COCC(=Cc1ccc(Cl)c(C(F)(F)F)c1)c1nc2cc(Cl)ccc2o1 [Compound 9]
Corn [1]; dose 2.5 g ai/a
  Phytotoxicity corn: 1
Corn [1]; dose 5 g ai/a
  Phytotoxicity corn: 1
[2]; dose 2.5 g ai/a
  Herbicidal Effect Monochoria vaginalis: 5 (100%)
[2]; dose 5 g ai/a
  Herbicidal Effect Monochoria vaginalis: 5 (100%)
[3]; dose 2.5 g ai/a
  Herbicidal Effect slender amaranth: 5 (100%)
[3]; dose 5 g ai/a
  Herbicidal Effect slender amaranth: 5 (100%)
Southern crabgrass; dose 2.5 g ai/a
  Herbicidal Effect southern crabgrass: 5 (100%)
Southern crabgrass; dose 5 g ai/a
  Herbicidal Effect southern crabgrass: 5 (100%)
[4]; dose 2.5 g ai/a
  Herbicidal Effect Flat sedge: 2 (40%-less than 60%)
[4]; dose 5 g ai/a
  Herbicidal Effect Flat sedge: 3 (60%-less than 80%)
[5]; dose 2.5 g ai/a
  Herbicidal Effect common purslane: 5 (100%)
[5]; dose 5 g ai/a
  Herbicidal Effect common purslane: 5 (100%)
[6]; dose 2.5 g ai/a
  Herbicidal Effect Japanese bulrush: 3 (60%-less than 80%)
[6]; dose 5 g ai/a
  Herbicidal Effect Japanese bulrush: 4 (80%-less than 100%)
[7]; dose 2.5 g ai/a
  Herbicidal Effect southern crabgrass: 5 (100%)
[7]; dose 5 g ai/a
  Herbicidal Effect southern crabgrass: 5 (100%)
[8]; dose 2.5 g ai/a
  Herbicidal Effect velvetleaf: 4 (80%-less than 100%)
[8]; dose 5 g ai/a
  Herbicidal Effect velvetleaf: 5 (100%)
Soybean [9]; dose 2.5 g ai/a
  Phytotoxicity soybean: 0
Soybean [9]; dose 5 g ai/a
  Phytotoxicity soybean: 1
Wheat [10]; dose 2.5 g ai/a
  Phytotoxicity wheat: 1
Wheat [10]; dose 5 g ai/a
  Phytotoxicity wheat: 1
Corn [11]; dose 2.5 g ai/a
  Phytotoxicity corn: 1
Corn [11]; dose 5 g ai/a
  Phytotoxicity corn: 1
Soybean [12]; dose 2.5 g ai/a
  Phytotoxicity soybean: 0
Soybean [12]; dose 5 g ai/a
  Phytotoxicity soybean: 0
Wheat [13]; dose 2.5 g ai/a
  Phytotoxicity wheat: 0
Wheat [13]; dose 5 g ai/a
  Phytotoxicity wheat: 1
[14]; dose 2.5 g ai/a
  Herbicidal Effect Barnyard grass: 4 (80%-less than 100%)
[14]; dose 5 g ai/a
  Herbicidal Effect Barnyard grass: 5 (100%)
Rice plant; dose 2.5 g ai/a
  Phytotoxicity Rice plant: 0
Rice plant; dose 5 g ai/a
  Phytotoxicity Rice plant: 0
[15]; dose 2.5 g ai/a
  Herbicidal Effect common lambsquaters: 5 (100%)
[15]; dose 5 g ai/a
  Herbicidal Effect common lambsquaters: 5 (100%)
Common lambsquaters; dose 2.5 g ai/a
  Herbicidal Effect Common lambsquatters: 5 (100%)
Common lambsquaters; dose 5 g ai/a
  Herbicidal Effect Common lambsquatters: 5 (100%)
velvetleaf; dose 2.5 g ai/a
  Herbicidal Effect velvetleaf: 4 (80%-less than 100%)
velvetleaf; dose 5 g ai/a
  Herbicidal Effect velvetleaf: 5 (100%)
Common purslane; dose 2.5 g ai/a
  Herbicidal Effect common purslane: 5 (100%)
Common purslane; dose 5 g ai/a
  Herbicidal Effect common purslane: 5 (100%)
Slender amaranth; dose 2.5 g ai/a
  Herbicidal Effect slender amaranth: 5 (100%)
Slender amaranth; dose 5 g ai/a
  Herbicidal Effect slender amaranth: 5 (100%)
